The source of these data is US20080193563A1, “HARNESSING WNT SIGNALING TO RESTRICT HIV REPLICATION” (priority 2006, published 2008).

Experiment [1] deals with HIV-Bal in U87MG. The experiment in a line: Cytokine pre-stimulation and HIV-Bal replication in U87MG, p24 ELISA. It is filed as cell-based. The note with it: pre-stimulation at 10 ng/ml, p24 day 7. The procedure: (§1) U87MG (A) and HFA (B) were pre-stimulated with increasing doses of either GM-CSF or IFNγ for 24 h followed by HIV-BAL infection for 24 hours. HIV replication was determined by measuring HIV p24 levels by ELISA seven days post-infection. The dotted line represents basal level of HIV infection of astrocytes without cytokine pre-treatment. Data is representative of three experiments performed in quadruplicate. Error bars represent standard deviations of the mean. Asterisks denote significant values (p<0.05) in comparison to untreated cultures as evaluated by analysis of variance.
(§2) To determine if pre-stimulation of astrocytes primes astrocytes, for productive HIV infection, U87MG and HFA were pre-treated for 24 hours with TNFγ, GM-CSF, or IFNγ at various concentrations (0-1000 ng/ml) then infected with HIV-Bal at 10 ng of HIV p24/1×10^6 cells for 24 hours. The cells were then washed extensively or trypsinized to remove bound virus and propagated in the presence of the respective cytokine concentration. HIV infection was monitored by p24 ELISA seven days post-infection. […]
(§3) IFN-γ Treatment and HIV Infection. […] HIV infection was monitored at day 7 postinfection by measuring p24 levels by conventional enzyme-linked immunosorbent assay (ELISA) (National Cancer Institute, Frederick, Md.).
A general note: An ELISA detects its analyte on a solid surface through an enzyme-linked reagent.

The subject of experiment [2] is IFNγ, GM-CSF and TNFγ receptors on U87MG. The experiment in a line: Cytokine receptor expression on U87MG by flow cytometry. It is filed as cell-based, human. The note with it: 24-hour treatment. The procedure:
U87MG (A) or HFA (B) were left untreated or treated with GM-CSF (50 ng/ml), IFNγ100 ng/ml) or TNFγ100 ng/ml). […] Percent expression of GM-CSF receptor (R), IFNγR, and TNFγR was measured 24 hours post-stimulation by flow cytometry. Data is representative of three experiments. Error bars represent standard deviations of the mean.
Prior to evaluating if GM-CSF, IFNγ, and TNFγ can augment HIV replication of astrocytes, a question was whether U87MG and HFA express the respective cytokine receptors. U87MG and HFA were treated with or without the respective cytokine for 24 hours and cytokine receptor expression was evaluated by flow cytometry. Approximately 35% of U87MG expressed the IFNγ receptor and a low level of GM-CSF and TNFγ receptors (<8%; FIG. 3A). […] Untreated HFA expressed only low levels of IFNγ receptor (6%) and this expression was abrogated with IFNγ treatment. GM-CSF and TNFγ receptors were not expressed on HFA.
On the technique in general: Flow cytometry measures light scatter and fluorescence of single cells or particles in a stream.

Experiment [3] has as its system HIV-Bal in HFA. Kind of experiment: Cytokine pre-stimulation and HIV-Bal replication in human fetal astrocytes, p24 ELISA. It is filed as cell-based. The note with it: 24 h pre-stimulation, p24 day 7. Here is the method: as §1, §2, §3
For experiment [4], the system named is CD4, hMR, CCR1, D6 on U87MG. The experiment in a line: HIV receptor and chemokine co-receptor expression on U87MG by flow cytometry. It is filed as cell-based, human. The procedure: (§4) U87MG (A) and HFA (B) were left untreated or treated GM-CSF (50 ng/ml) or IFNγ (100 ng/ml) for 24 h. Expression of receptors on the x-axis was measured by flow cytometry. Isotype refers to mouse IgG. Data is representative of three experiments. Error bars represent standard deviation of the mean. (C). IFNγ up-regulates D6 on U87MG cells. U87MG were left untreated or treated with IFNγ. After 3 days, the cells were immunostained with anti-D6 or isotype antibodies. The first histogram (peak) represents isotype control; the dark shaded histogram represents untreated cultures, and the third histogram (peak) represents IFNγ-treated cultures. Data is typical of quadruplet experiments.
(§5) Because IFNγ was a potent cytokine in inducing HIV infection of astrocytes, it was determined whether IFNγ treatment modulated key HIV receptors CD4, human mannose receptor D6 and co-receptors (CCR1, CCR2, CCR3, CXCR4, and CCR5) for HIV infection. U87MG is human mannose receptor (hMR) […] (FIG. 5). However, hMR was not detected on HFA, which may be regulated by the differentiation stage of the HFA (FIG. 5 (B)). CD4 and hMR expression in both U87MG and HFA was not augmented by IFNγ or GM-CSF (FIG. 5(A)-(B)). […] HFA were positive for CXCR4 (12%), but its expression was not augmented by GM-CSF or IFNγ treatment (FIG. 5B). IFNγ was reported to enhance CXCR4 and CCR5 expression on simian adult astrocytes, which is in contrast to data on human fetal astrocytes highlighting a discrepancy between simian adult and human fetal astrocytes. […] Infection of U87MG and HFA with a T-tropic isolate (IIIB), while it was productive, was not enhanced by cytokine pre-treatment. This may be a consequence of the laboratory adapted HIV IIIB, therefore primary T-tropic or dual tropic strains may still be responsive to IFNγ pre-treatment of astrocytes. Recently, the CC chemokine receptor D6 was identified as a functional co-receptor for primary HIV infection of astrocytes.

Experiment [5] relates to CD4, hMR, CXCR4 on HFA. The experiment in a line: HIV receptor and chemokine co-receptor expression on HFA by flow cytometry. It is filed as cell-based, human. The procedure: as §4, §5
In experiment [6] the test system is HIV 302151 (93US151). The experiment in a line: Primary HIV isolate 302151 replication in stimulated PBMCs, p24 ELISA. It is filed as cell-based. The note with it: ALLN at either 5 or 25, p24 day 7, vs non-ALLN treated.
The test system of experiment [7] is HIV IIIB. Kind of experiment: HIV IIIB replication in stimulated PBMCs, p24 ELISA. It is filed as cell-based. Also noted: dose or concentration left out as unconfirmed. The note with it: ALLN at either 5 or 25, p24 day 7, vs non-ALLN treated.

For “GM-CSF: cytokine secreted by glial cells; used to pre-stimulate astrocytes”, the “Induction of HIV replication” value in experiment [1] was 5 fold; in experiment [3], “no effect”. For the same substance, the “Effect on respective cytokine receptor expression” value in experiment [2] is listed as “neither GM-CSF nor TNFγ treatments had an effect”. For the same substance, the “CD4 and hMR expression” value in experiment [4] and in experiment [5] was “not augmented” in each case. The “Up-regulation of CCR1 expression” value in experiment [4] (24 h treatment) is listed as “no effect”. Also, in experiment [5] (untreated 12%), the CXCR4 expression entry is “not augmented”.

Regarding “N-acetyl-Leu-Leu-norleucinal [ALLN peptide]”, in experiment [6], the “Induction of HIV 30215 replication” value is recorded as “five-fold”. Besides, the “Induction of HIV IIIB replication” value in experiment [7] is “three”.
